Results: patent US20230028880A1, “CD38-BINDING AGENTS AND USES THEREOF” (Biohaven Therapeutics Ltd., priority 2019, published 2023)
Values joined by “and” are separate entries in the source; they are usually repeats but may differ in a detail not shown here. Equal entries are not always repeated. “Also recorded” adds a separate entry of the source.

Legend:
Daudi cells [1] = test: Ternary binding assay: recruitment of PE-labeled human IgG1k to Daudi cells (flow cytometry, MFI); format: cell-based; conditions: duplicate columns
Method: Various technologies can be utilized to assess and/or characterize recruitment of antibodies to target cells, e.g., cancer cells. One such assay is a ternary binding assay. An exemplary protocol is described herein. Compounds were diluted in DMSO (MP 191418) to 1000× the starting concentration used in the assay into a 96 well polypropylene plate (Corning 3357). They were then serially diluted in ½ log increments to generate 8-12 concentrations in DMSO (assay dependent). These DMSO stocks were then step diluted 1/100 into PBS (VWR Cat. #20012043). Step diluted compound range was then added into the polypropylene assay plate 1/10 the volume of the assay volume. Daudi (ATCC CCL-213), a non-adherent cell line, were counted and centrifuged and resuspended at a concentration of 100,000 cells per 90 ul in Flow buffer: 1% BSA (American Bio AB01088-00100); 0.5 mM EDTA (VWR 45001-122); PBS (VWR Cat. #20012043) with 11.1 ug/mL human IgG1k Phycoerythrin labeled (SouthernBiotech #0151K-09 PE). The cells were then added into the polypropylene plate with the step diluted compounds and incubated at 37° C. for 30 min. At the end of the incubation, the cells were centrifuged and washed 2× with How buffer containing 0.5% Tween 20 (BP337-500). Samples were analyzed on a BD FacsCelesta. Mean fluorescence was analyzed using Graphpad Prism and curves were fit using log(inhibitor) vs. response—Variable slope (four parameters).

[2] = tested on: Effector cells (ADCC reporter cells) with Daudi cells; test: ADCC reporter assay: Daudi cells, IVIG and ADCC reporter effector cells (luciferase, RLU); format: cell-based; conditions: IVIG; for Luminescence, ADCC reporter assay: duplicate columns
Method: Daudi (ATCC CCL-213) cells were resuspended in Opti-MEM (Thermo Fisher Scientific #31985070), counted (Life Technologies Countless II cell counter) and plated (5,000 cells in 25 uL/well; Corning plates: 3917). Compounds w diluted in DMSO (MP 191418) to 1000× the starting concentration used in the assay into a 96 well polypropylene plate (Corning 3357). They were then serially diluted in ½ log increments to generate 8 concentrations in DMSO (assay dependent). These DMSO stocks were then step diluted 1/250 into Opti-MEM. Step diluted compound range was then added into the polypropylene assay plate 25 uL/well. The human antibody solution (Grifols IVIG Fleogogamma #61953-0005-2) was diluted to 40 ug/mL and added 25 uL/well. Effector cells (ADCC reporter cells—Promega kit: G7018) were added 37,500 in 25 uL/well. The assay was then incubated 18 h at 37° C. Following the induction period, the plate was equilibrated to 25° C. followed the addition of the luciferase substrate (75 uL/well, 1 vial in 10 mL of Bio-Glo assay buffer, Promega kit: G7018). The luminescence was measured (Biotek Synergy H1 microplate reader).

Daudi cells [3] = test: KILR ADCC killing assay: KILR-transfected Daudi cells with purified NK cells (% dead cells); format: cell-based; conditions: for % dead cells, KILR ADCC killing assay: KILR Daudi cells with purified NK cells, duplicate columns
From the text: In some embodiments, CD38-ABT ARMs bind to target cells and antibodies, e.g., human antibodies. In some embodiments, such ternary structures present antibodies to effector cells such as NK cell and bind to, e.g., CD16a receptors. […] Daudi cells were transfected with KILR reporter construct (DiscoverX #97-0002). An attenuated lentivirus was designed to deliver a Moloney Murine Leukemia Virus (MMLV) engineered to drive expression of a housekeeping gene tagged with Enhanced ProLabel (ePL) a beta-Galactosidase (beta-gal) reporter fragment. This construct was designed to remain inside cells. Death leads to the release of the KILR reporter protein into the medium. Detection reagent (DiscoverX #97-0001L) contained the complementing beta-gal reporter fragment enzyme acceptor (EA). The two components combined to generate a chemiluminescent signal.

NK cells = test: Depletion of CD38-expressing effector cells: purified NK cells, 18 h, Zombie viability dye; format: cell-based, human; conditions: I-9 300 nM-10 nM, Daratumumab 3 ug/mL-0.1 ug/mL, IvIG 10 ug/mL, 18 h (FIG. 4)
From the text: In some embodiments, provided technologies provides various advantages compared to existing CD38-based technologies, e.g., those using CD38 antibodies. […] As appreciated by those skilled in the art, various technologies can be utilized to assess depleting of CD38-expressing effector cells. In one example, NK cells were purified from frozen stock using 3×10^7 PBMC preparations ([…] technologies) using EasySep™ Human NK cell Isolation Kit […] Technologies (cat #17955) according to manufacturer's instructions. NK cells were plated at the density of 2×10^6 cells per mL of OPTIMEM media, in a 100 uL volume per well of round bottom 96 well plates. Daratumumab was added to a final concentration range of 3 ug/mL to 0.1 ug/mL. […] IvIG was used at a final concentration of 10 ug/mL. Cells were mixed by pipetting up and down and incubated for 18 h at 37° C. At the end of the incubation period, cells were centrifuged at 400 g for 5 min and re-suspended in PBS. Following this, cells were stained with 1 uM Zombie viability dye (Biolegend, catalog #423111) according to manufacturer's instructions and incubated for 15 minutes at room temperature. […] Cells were analyzed on BD FACSCelesta flow cytometer (BD Biosciences). […] Percentages of Zombie green positive NK cells were analyzed and graphed using GraphPad Prism software.

## CCCCC[C@@H]1NC(=O)[C@H](CCCNC(=N)N)NC(=O)[C@H](C)NC(=O)CSC[C@@H](C(=O)NCCOCCOCCOCCOCCOCCOCCn2nnc3c2CCC2C(CC3)C2COC(=O)N2CCC(C(=O)NCC(=O)N[C@H](CCC(=O)N[C@H](CCC(=O)N[C@H](CCC(=O)NCCCCCCCCCCCC(=O)O)C(=O)N[C@H](CCC(=O)N[C@H](CCC(=O)NCC(=O)NCC(=O)N[C@@H](CC(=O)O)C(=O)N[C@H]3CSSC[C@@H](C(=O)N[C@H](C(=O)O)[C@@H](C)O)NC(=O)[C@H](Cc4c[nH]c5ccccc45)NC(=O)[C@H](C(C)C)NC(=O)[C@H](CC(C)C)NC(=O)[C@H](CCC(=O)O)NC(=O)CNC(=O)[C@H](CC(C)C)NC(=O)[C@H](Cc4c[nH]cn4)NC(=O)[C@H](Cc4c[nH]c5ccccc45)NC(=O)[C@H](C)NC3=O)C(=O)O)C(=O)O)C(=O)O)C(=O)O)CC2)NC(=O)[C@H](CC(=O)O)NC(=O)[C@H](CCCCC)NC(=O)[C@H](Cc2ccc(-c3ccccc3)cc2)NC(=O)[C@H](CC(C)C)NC(=O)[C@H](C(C)C)NC(=O)CNC(=O)[C@H](CC(=O)O)NC(=O)[C@H](Cc2c[nH]cn2)NC(=O)[C@H](Cc2ccc(O)cc2)NC1=O (stereo partly shown) [I-9]
Daudi cells [1]; compound 0.03 nM
  MFI, recruitment of PE-labeled human IgG1k to Daudi cells: 2297 and 2037
Daudi cells [1]; compound 0.1 nM
  MFI, recruitment of PE-labeled human IgG1k to Daudi cells: 2514 and 2495
Daudi cells [1]; compound 0.3 nM
  MFI, recruitment of PE-labeled human IgG1k to Daudi cells: 2861 and 2727
Daudi cells [1]; compound 1 nM
  MFI, recruitment of PE-labeled human IgG1k to Daudi cells: 3063 and 2925
Daudi cells [1]; compound 3 nM
  MFI, recruitment of PE-labeled human IgG1k to Daudi cells: 4268 and 4210
Daudi cells [1]; compound 10 nM
  MFI, recruitment of PE-labeled human IgG1k to Daudi cells: 7133 and 6933
Daudi cells [1]; compound 30 nM
  MFI, recruitment of PE-labeled human IgG1k to Daudi cells: 10630 and 8384
Daudi cells [1]; compound 100 nM
  MFI, recruitment of PE-labeled human IgG1k to Daudi cells: 9899 and 10608
Daudi cells [1]; compound 300 nM
  MFI, recruitment of PE-labeled human IgG1k to Daudi cells: 7835 and 7873
Daudi cells [1]; compound 1000 nM
  MFI, recruitment of PE-labeled human IgG1k to Daudi cells: 4929 and 5108
Daudi cells [1]; compound 3000 nM
  MFI, recruitment of PE-labeled human IgG1k to Daudi cells: 4383 and 4301
[2]; ADCC reporter assay
  EC50: 5.5 nM
[2]; ADCC reporter cells, 18 h, one set of experiment (FIG. 2)
  EC70: about 0.92 nM
[2]; compound 0.3 nM, 18 h
  Luminescence, ADCC reporter assay: 18458 RLU and 20362 RLU
[2]; compound 1 nM, 18 h
  Luminescence, ADCC reporter assay: 20777 RLU and 20342 RLU
[2]; compound 3 nM, 18 h
  Luminescence, ADCC reporter assay: 24006 RLU and 24206 RLU
[2]; compound 10 nM, 18 h
  Luminescence, ADCC reporter assay: 35274 RLU and 44761 RLU
[2]; compound 30 nM, 18 h
  Luminescence, ADCC reporter assay: 55170 RLU and 59273 RLU
[2]; compound 100 nM, 18 h
  Luminescence, ADCC reporter assay: 60746 RLU and 68867 RLU
[2]; compound 300 nM, 18 h
  Luminescence, ADCC reporter assay: 55313 RLU and 76306 RLU
[2]; compound 1000 nM, 18 h
  Luminescence, ADCC reporter assay: 51790 RLU and 65856 RLU
Daudi cells [3]; KILR Daudi cells, purified NK cells, one set of experiments (FIG. 3)
  EC50: 6.7 nM
Daudi cells [3]; compound 0.3 nM
  % dead cells, KILR ADCC killing assay: 5.1% and 5.5%
Daudi cells [3]; compound 1 nM
  % dead cells, KILR ADCC killing assay: 4.8% and 4.7%
Daudi cells [3]; compound 3 nM
  % dead cells, KILR ADCC killing assay: 5%
Daudi cells [3]; compound 10 nM
  % dead cells, KILR ADCC killing assay: 5.3% and 5.7%
Daudi cells [3]; compound 30 nM
  % dead cells, KILR ADCC killing assay: 6.1% and 6.9%
Daudi cells [3]; compound 100 nM
  % dead cells, KILR ADCC killing assay: 6.6% and 7.4%
Daudi cells [3]; compound 300 nM
  % dead cells, KILR ADCC killing assay: 7.3% and 8.1%
Daudi cells [3]; compound 1000 nM
  % dead cells, KILR ADCC killing assay: 6.8% and 6.7%
NK cells
  Depletion of CD38-expressing effector cells (NK cells): did not deplete CD38-expressing effector cells; also recorded: do not significantly deplete effector cells
